Measured values published in PMC10816640, “Discovery of Novel Diphenyl Acrylonitrile Derivatives That Promote Adult Rats’ Hippocampal Neurogenesis” (International Journal of Molecular Sciences, 2024).
“Also recorded” adds a separate entry of the source.

Assays:
[1] = test system: progenitor cells in the rodents’ hippocampi; assay: Proliferation stage of neurogenesis: BrdU labeling, rats sacrificed 24 h after BrdU; format: in vivo, rat; settings: eleven-week-old rats (n = 2), i.p. 4.0 mg/kg/day for 28 days, BrdU pulse, vs vehicle
From the text: Previous in vitro or in vivo studies mainly focused on stimulating the proliferation effect of the small molecules. In this study, a two-step protocol was employed. First, the stimulating function of the compounds on progenitor cells in the rodents’ hippocampi was examined with using bromodeoxyuridine (BrdU) labeling. Next, the potent compounds were further screened to ascertain their ability to promote the differentiation of neural progenitor cells, as confirmed by dual labeling of BrdU and NeuN (neuronal nuclear antigen).
Adult rats were administered intraperitoneally with the prepared compounds at a dose of 4.0 mg/kg/day for a period of 28 days, followed by a BrdU pulse. After 24 h, the rats were sacrificed, and their brain tissues were isolated and cryosectioned. Immunohistochemical staining was performed and eight brain tissue slices were randomly selected for statistical analyzing.
Eight-week-old (or 10-week-old) SD male rats purchased from Peking University Health Science Center were acclimatized for one week at the Beijing Institute of Technology. All experimental protocols strictly adhered to the regulations governing the management of experimental animals and the animal ethics policy of the Beijing Institute of Technology.
The compounds were dissolved in reagent-grade soybean oil containing 10% ethanol to reach a drug concentration of 2.8 mg/mL. The rats in the experimental group received intraperitoneal injections of the compounds at a dose of 4.0 mg/kg/d for 28 consecutive days. As a control, the vehicle group was administered injections of reagent-grade soybean oil containing 10% ethanol. BrdU (Sigma-Aldrich, St. louis, MA, USA) solution, prepared in physiological saline at a concentration of 10 mg/mL, was administered to all rats on day 29. Each rat received two injections of BrdU at a dosage of 50 mg/kg, with a 2 h interval between injections. The rats were euthanized 24 h (or 28 days) after the final BrdU injection.
Two or four rats per group were anesthetized using pentobarbital sodium (70 mg/kg) and subsequently perfused with physiological saline. The brain tissue was carefully dissected and fixed in 4% paraformaldehyde at 4 °C for one week. Next, the brain tissue underwent dehydration using a phosphate-buffered saline (PBS) solution containing 20% to 30% sucrose. Finally, the brain tissue was cryosectioned into slices with a thickness of 30 μm, and eight slices were randomly selected for further analysis.
The assessment of new cell proliferation was conducted using BrdU staining. To eliminate endogenous peroxides, sections were exposed to 1% H2O2 for 30 min at RT. Cellular denaturation was achieved by treating the sections with 2 M HCl at 37 °C for 1 h, followed by rinsing in 0.1 M borate buffer (pH 8.5). Tissue sections were subjected to blocking in a solution consisting of 5% goat serum and 0.5% Triton X-100 in PBS at RT for 1–2 h. The specimens were then incubated overnight at 4 °C with a mouse primary antibody specific to BrdU (diluted at 1:500; Millipore, Billerica, MA, USA). Subsequently, the DAB kit was employed for 2 h of incubation at RT.
The data were presented as mean ± SEM (standard error of the mean) and visualized using GRAPHPAD PRISM 6 (Graphpad Software, La Jolla, CA, USA). Statistical analysis was conducted utilizing one-way analysis of variance (ANOVA) followed by a post hoc test. Subsequent to the statistical treatment, the observed discrepancies were determined to be statistically significant (p < 0.05).

[2] = test system: newborn cells in the subgranular zone; assay: BrdU+ newborn cells, rats sacrificed 28 days after BrdU; format: in vivo, rat; settings: nine-week-old rats (n = 2), i.p. 4.0 mg/kg/day for 28 days, BrdU pulse, Figure 7A
Procedure: The study employed a rat model, wherein nine-week-old rats were administered intraperitoneally with the compound at a dose of 4.0 mg/kg/day for 28 days and then treated with a pulse of BrdU. Instead of sacrificing the rats 24 h after the BrdU injections, the rats were sacrificed after another 28 days. The brains were then isolated and cryosectioned. Eight randomly selected slices were subjected to immunohistochemical staining. This staining enabled the co-localization of the BrdU-incorporated cells with the NeuN marker, enabling the definition of the compounds that could promote the differentiation of newborn neural progenitor cells into mature functional neurons. The compounds were dissolved in reagent-grade soybean oil containing 10% ethanol to reach a drug concentration of 2.8 mg/mL. The rats in the experimental group received intraperitoneal injections of the compounds at a dose of 4.0 mg/kg/d for 28 consecutive days. As a control, the vehicle group was administered injections of reagent-grade soybean oil containing 10% ethanol. BrdU (Sigma-Aldrich, St. louis, MA, USA) solution, prepared in physiological saline at a concentration of 10 mg/mL, was administered to all rats on day 29. Each rat received two injections of BrdU at a dosage of 50 mg/kg, with a 2 h interval between injections. The rats were euthanized 24 h (or 28 days) after the final BrdU injection. Two or four rats per group were anesthetized using pentobarbital sodium (70 mg/kg) and subsequently perfused with physiological saline. The brain tissue was carefully dissected and fixed in 4% paraformaldehyde at 4 °C for one week. Next, the brain tissue underwent dehydration using a phosphate-buffered saline (PBS) solution containing 20% to 30% sucrose. Finally, the brain tissue was cryosectioned into slices with a thickness of 30 μm, and eight slices were randomly selected for further analysis. The assessment of new cell proliferation was conducted using BrdU staining. To eliminate endogenous peroxides, sections were exposed to 1% H2O2 for 30 min at RT. Cellular denaturation was achieved by treating the sections with 2 M HCl at 37 °C for 1 h, followed by rinsing in 0.1 M borate buffer (pH 8.5). Tissue sections were subjected to blocking in a solution consisting of 5% goat serum and 0.5% Triton X-100 in PBS at RT for 1–2 h. The specimens were then incubated overnight at 4 °C with a mouse primary antibody specific to BrdU (diluted at 1:500; Millipore, Billerica, MA, USA). Subsequently, the DAB kit was employed for 2 h of incubation at RT. The differentiation process of NPCs was visualized through the utilization of the NeuN/BrdU double staining technique. Tissue sections were subjected to an incubation period in a blocking buffer at RT for 1 to 2 h. The specimens were exposed to a rabbit anti-NeuN antibody (diluted at 1:500, Abcam, Cambridge, MA, UK) and a primary antibody, BrdU (diluted at 1:500), overnight at 4 °C. Afterwards, the sections were treated with anti-mouse 488 and anti-rabbit TRITC secondary antibodies for 2 h at RT. The data were presented as mean ± SEM (standard error of the mean) and visualized using GRAPHPAD PRISM 6 (Graphpad Software, La Jolla, CA, USA). Statistical analysis was conducted utilizing one-way analysis of variance (ANOVA) followed by a post hoc test. Subsequent to the statistical treatment, the observed discrepancies were determined to be statistically significant (p < 0.05).

SMILES | proliferation-promoting activity (number of BrdU+ newborn cells) ([1]; Figures 3-6) | proliferative activity over the longer 28 day period (number of BrdU+ cells) [2] | proliferation-promoting activity (number of BrdU+ newborn cells) ([1]; Figures 3-6, 4 mg/kg/day)
CN(C)C(=O)Nc1ccc(/C=C/c2ccc3c(c2)OCO3)cc1 [8c, (E)-3-(4-(2-(benzo[d][1, 3]dioxol-5-yl)vinyl)phenyl)-1,1-dimethylurea] | significant proliferation-promoting activity | could promote the proliferation of progenitors | –
O=C(Nc1ccc(/C=C/c2ccc3c(c2)OCO3)cc1)C1CCC1 [8d, (E)-N-(4-(2-(benzo[d][1, 3]dioxol-5-yl)vinyl)phenyl)cyclobutanecarboxamide] | – | could promote the proliferation of progenitors | significant proliferation-promoting activity; also recorded: greater propensity for enhancing activity
N#CC1(C(=O)Nc2ccc(/C=C/c3ccc4c(c3)OCO4)cc2)CC1 [8e, (E)-N-(4-(2-(benzo[d][1, 3]dioxol-5-yl)vinyl)phenyl)-1-cyanocyclopropane-1-carboxamide] | did not display significant activity | – | –
CN(C)S(=O)(=O)Cc1ccc(/C=C/c2ccc3c(c2)OCO3)cc1 [8j, (E)-1-(4-(2-(benzo[d][1, 3]dioxol-5-yl)vinyl)phenyl)-N,N-dimethylmethanesulfonamide] | – | – | significant proliferation-promoting activity; also recorded: greater propensity for enhancing activity
O=S(=O)(Nc1ccc(/C=C/c2ccc3c(c2)OCO3)cc1)C1CC1 [8k, (E)-N-(4-(2-(benzo[d][1, 3]dioxol-5-yl)vinyl)phenyl)cyclopropanesulfonamide] | – | could promote the proliferation of progenitors | significant proliferation-promoting activity; also recorded: greater propensity for enhancing activity
COc1cc(/C=C/c2ccc(NC(=O)C(C)C)cc2)cc(OC)c1 [9b, (E)-N-(4-(3,5-dimethoxystyryl)phenyl)isobutyramide] | significant proliferation-promoting activity | – | –
COc1cc(/C=C/c2ccc(NC(=O)c3ccccc3)c(F)c2)cc(OC)c1 [12f, (E)-N-(4-(3,5-dimethoxystyryl)-2-fluorophenyl)benzamide] | – | – | not and adversely affected the proliferative activity
CC(C)C(=O)Nc1ccc(C/C=C/c2ccc3c(c2)OCO3)cc1 [18b, (E)-N-(4-(3-(benzo[d][1, 3]dioxol-5-yl)allyl)phenyl)isobutyramide] | – | did not exhibit significant proliferative activity | significant proliferation-promoting activity; also recorded: maintained the same proliferative activity as 9b
CC(C)C(=O)Nc1ccc(/C=C/Cc2ccc3c(c2)OCO3)cc1 [23b, (E)-N-(4-(3-(benzo[d][1, 3]dioxol-5-yl)prop-1-en-1-yl)phenyl)isobutyramide] | – | did not exhibit significant proliferative activity | significant proliferation-promoting activity; also recorded: maintained the same proliferative activity as 9b
CS(=O)(=O)Nc1ccc(/C=C/Cc2ccc3c(c2)OCO3)cc1 [23i, (E)-N-(4-(3-(benzo[d][1, 3]dioxol-5-yl)prop-1-en-1-yl)phenyl)methanesulfonamide] | decreased | – | –
COc1cc(C/C=C/c2ccc(NC(=O)C(C)C)cc2)cc(OC)c1 [24b, (E)-N-(4-(3-(3,5-dimethoxyphenyl)prop-1-en-1-yl)phenyl)isobutyramide] | – | did not exhibit significant proliferative activity | –
CC(=O)Nc1ccc(CN(C)Cc2ccc3c(c2)OCO3)cc1 [36a, N-(4-(((benzo[d][1, 3]dioxol-5-ylmethyl)(methyl)amino)methyl)phenyl)acetamide] | abolished the activity | – | –
CC(C)C(=O)NCc1ccc(/C=C/c2ccc3c(c2)OCO3)cc1 [42b, (E)-N-(4-(2-(benzo[d][1, 3]dioxol-5-yl)vinyl)benzyl)isobutyramide] | – | remained devoid of proliferative activity | not and loss of activity
